Drawing on patent US4275066A, “Antireproductive tricyclic ortho-fused nitrogen containing compounds” (Gruppo Lepetit S.p.A., priority 1979, dated 1981), this text covers ED50 for four compounds.

The structures appear in SMILES notation.

For experiment [1], the system named is female Syrian golden hamsters. Nature of the experiment: post-coital-post-implantation antifertility activity, s.c., hamsters. Format: in vivo, Syrian golden hamster. The note with it: Mesocricetus auratus, sc, sesame oil containing 20% benzyl benzoate, daily for 5 days (days 4-8 of pregnancy), autopsy day 14, read-out: ED50 (100% activity, absence of live fetuses, in 50% of the animals). As for the experimental part:
(§1) Representative experiments for assessing antifertility activity were carried out with female Syrian golden hamsters weighing 100 to 130 g. The animals were mated and the presence of sperm in the vagina was taken as evidence of mating. The day sperm was detected was considered day one of pregnancy, since in our laboratories and those of other investigators 90 to 100% of animals that mate as evidenced by vaginal sperm are pregnant.
(§2) Pregnancy was later confirmed at the time of autopsy by presence of fetuses or implantation sites in the uterus. Even if an animal aborts the fetus, implantation scars still remain as evidence that the animal has been pregnant. […] The animals were autopsied on day 14 of pregnancy and the uteri were examined for evidence of pregnancy (implantation sites, fetal resorptions or live fetuses), hemorrhage, and evidence of abnormalities of the uterus, placenta or fetuses. A compound was considered to be active if there was a reduction of live fetuses in at least 60% of the treated animals and the presence of implantation sites proves the animal to have been pregnant.
The compounds were then studied for dose-activity relationships and the corresponding ED50 values i.e., 100% activity (absence of live fetuses) in 50% of the animals, were also determined. The following Table reports the ED50 values of some representative compounds of the invention: […]

In experiment [2] the test system is female Sprague-Dawley rats. As to the kind of experiment: anti-reproductive activity, s.c., rats. The note with it: Rattus norvegicus, sc, five consecutive days from day 6 of pregnancy, autopsy day 16. Format: in vivo, Sprague-Dawley rat. The method, then:
The same criteria and experimental conditions as above were also applied when the anti-reproductive activity of the compounds of the invention was investigated in other animal species such as, for instance, rats, dogs, monkeys and baboons.
In representative experiments, female Sprague-Dawley rats weighing from 200 to 300 g. were treated subcutaneously with a dosage of 20 mg/kg of the compound to be tested, dissolved in sesame oil containing 20% of benzyl benzoate, for five consecutive days starting from day 6 of pregnancy.

The test system of experiment [3] is hamsters. Nature of the experiment: antifertility activity by oral route, hamsters. To be noted: Mesocricetus auratus, p.o. Format: in vivo, hamster. The method, then:
as §1, §2
The compounds were then studied for dose-activity relationships and the corresponding ED50 values i.e., 100% activity (absence of live fetuses) in 50% of the animals, were also determined. The following Table reports the ED50 values of some representative compounds of the invention:
Favorable results were also obtained by administering the compounds of the invention by oral route. The experiments for assessing this property were carried out on hamsters following the same procedures as above, with the obvious exception that the compounds were administered orally instead of subcutaneously.

Experiment [4] relates to hamsters. Nature of the experiment: antifertility activity by intravaginal route, hamsters. The note with it: Mesocricetus auratus. The experiment is classed as in vivo, hamster.

What is called ED50 is the midpoint of the dose-response relation.

Turning to `c1ccc(-c2ccc(-c3nc4c5ccccc5ccn4n3)cc2)cc1` [Example 1, 2-[(1,1'-Biphenyl)-4-yl]-1,2,4-triazolo[5,1-a]isoquinoline], the 50% effective dose (ED50) in experiment [1] is 0.015 mg/kg; in experiment [2] it was 0.55 mg/kg; in the experiment with hamsters [3], 0.2 mg/kg; in the experiment with hamsters [4], roughly 0.2 mg/kg.
Turning to `c1ccc(-c2ccc(-c3nc4n(n3)Cc3ccccc3-4)cc2)cc1` [Example 4, 2-[(1,1'-Biphenyl)-4-yl]-5H-1,2,4-triazolo[5,1-a]isoindole], the ED50 in experiment [1] was 0.7 mg/kg.
Take `c1ccc(-c2ccc(-c3cn4ccc5ccccc5c4n3)cc2)cc1` [Example 6, 2-[(1,1'-Biphenyl)-4-yl]-imidazo[2,1-a]isoquinoline]: the results for the ED50 (in experiment [1]; with hamsters [3]) were 0.02 mg/kg and 0.3 mg/kg, respectively.
As for `c1ccc(-c2ccc(-c3nc4n(n3)CCc3ccccc3-4)cc2)cc1` [Example 3, 2-[(1,1'-Biphenyl)-4-yl]-5,6-dihydro-1,2,4-triazolo[5,1-a]isoquinoline], the figures for the ED50 (in experiment [1]; in the experiment on hamsters [3]) were 0.05 mg/kg and 0.5 mg/kg, respectively.
